Assay results taken from patent publication US9474758B2, “Thienopyrimidinedione derivatives as TRPA1 modulators” (Glenmark Pharmaceuticals S.A., priority 2009, dated 2016).
Where two headings read alike, the source gives them in different places.

What was measured:
[1] = biological target: T1, Human TRPA1 expressing CHO cells (Homo sapiens, UniProt O75762); test: 45Calcium uptake assay, inhibition of AITC induced calcium uptake (human); type: cell-based; conditions: for inhibition at 1 µM: read-out: Percentage inhibition at 1.0 μM; for inhibition at 10 µM: read-out: Percentage inhibition at 10.0 μM
T1 construct: expressed in transfected cells; host or cells: CHO cells (G-418 selection)
T1 sequence (O75762 whole entry): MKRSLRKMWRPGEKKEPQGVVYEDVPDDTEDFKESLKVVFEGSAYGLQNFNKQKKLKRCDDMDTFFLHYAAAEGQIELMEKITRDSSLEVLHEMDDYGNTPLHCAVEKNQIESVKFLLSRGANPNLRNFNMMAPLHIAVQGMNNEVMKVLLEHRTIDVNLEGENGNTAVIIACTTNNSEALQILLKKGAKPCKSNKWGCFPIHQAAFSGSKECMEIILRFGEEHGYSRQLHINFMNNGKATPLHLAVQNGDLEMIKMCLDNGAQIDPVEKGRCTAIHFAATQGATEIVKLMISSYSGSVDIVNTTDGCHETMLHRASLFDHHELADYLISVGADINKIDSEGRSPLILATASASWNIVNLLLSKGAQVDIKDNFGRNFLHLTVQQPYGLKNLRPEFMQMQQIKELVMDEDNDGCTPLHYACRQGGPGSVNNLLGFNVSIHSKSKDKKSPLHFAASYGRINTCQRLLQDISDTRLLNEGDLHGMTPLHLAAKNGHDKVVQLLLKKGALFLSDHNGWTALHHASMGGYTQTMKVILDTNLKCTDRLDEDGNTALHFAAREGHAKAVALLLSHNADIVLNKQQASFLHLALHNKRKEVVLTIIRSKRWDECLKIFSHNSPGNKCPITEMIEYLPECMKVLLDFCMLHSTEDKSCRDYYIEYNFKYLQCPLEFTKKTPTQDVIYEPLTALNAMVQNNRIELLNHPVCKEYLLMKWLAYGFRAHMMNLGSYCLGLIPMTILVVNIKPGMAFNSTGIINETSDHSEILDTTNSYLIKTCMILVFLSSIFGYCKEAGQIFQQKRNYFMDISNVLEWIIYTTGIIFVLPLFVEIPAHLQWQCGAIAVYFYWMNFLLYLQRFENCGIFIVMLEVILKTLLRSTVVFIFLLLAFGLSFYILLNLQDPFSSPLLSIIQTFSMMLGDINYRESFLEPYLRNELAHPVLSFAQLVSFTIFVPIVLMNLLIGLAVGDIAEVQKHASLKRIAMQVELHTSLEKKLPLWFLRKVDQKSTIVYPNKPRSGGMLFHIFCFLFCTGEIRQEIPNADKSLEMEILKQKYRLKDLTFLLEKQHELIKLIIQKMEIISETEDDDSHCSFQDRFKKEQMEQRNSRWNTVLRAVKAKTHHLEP
Procedure: (§1) Screening for TRPA1 Antagonist Using the ^45Calcium Uptake Assay:
(§2) The inhibition of TRPA1 receptor activation was measured as inhibition of allyl isothiocyanate (AITC) induced cellular uptake of radioactive calcium.
(§3) Test compounds were dissolved in 100% DMSO to prepare 10 mM stock and then diluted using plain medium with 0.1% BSA and 1.8 mM CaCl2 to get the desired concentration. The final concentration of DMSO in the reaction was 0.5% (v/v). […] Rat TRPA1 expressing CHO cells were grown in F-12 DMEM medium with 10% FBS, 1% penicillin-streptomycin solution, and 400 μg/ml of Zeocin. […] Cells were treated with the test compounds for 10 minutes followed by the addition of AITC at a final concentration of 30 μM (for human TRPA1) and/or 10 μM (for rat TRPA1) and 5 μCi/ml ^45Ca^+2 for 3 minutes. Cells were washed and lysed using a buffer containing 1% Triton X-100, 0.1% deoxycholate and 0.1% SDS. Radioactivity in the lysate was measured in a Packard TopCount after addition of liquid scintillant.
(§4) Concentration response curves were plotted as a % of maximal response obtained in the absence of test antagonist. IC50 values can be calculated from concentration response curve by nonlinear regression analysis using GraphPad PRISM software.

[2] = biological target: T2, Rat TRPA1 expressing CHO cells (Rattus norvegicus, UniProt Q6RI86); test: 45Calcium uptake assay, inhibition of AITC induced calcium uptake (rat); type: cell-based; conditions: for inhibition at 1 µM: read-out: Percentage inhibition at 1.0 μM; for inhibition at 10 µM: read-out: Percentage inhibition at 10.0 μM; for IC50: read-out: Rat IC50 value (Range)
T2 construct: expressed in transfected cells; host or cells: CHO cells (Zeocin selection)
T2 sequence (Q6RI86 whole entry): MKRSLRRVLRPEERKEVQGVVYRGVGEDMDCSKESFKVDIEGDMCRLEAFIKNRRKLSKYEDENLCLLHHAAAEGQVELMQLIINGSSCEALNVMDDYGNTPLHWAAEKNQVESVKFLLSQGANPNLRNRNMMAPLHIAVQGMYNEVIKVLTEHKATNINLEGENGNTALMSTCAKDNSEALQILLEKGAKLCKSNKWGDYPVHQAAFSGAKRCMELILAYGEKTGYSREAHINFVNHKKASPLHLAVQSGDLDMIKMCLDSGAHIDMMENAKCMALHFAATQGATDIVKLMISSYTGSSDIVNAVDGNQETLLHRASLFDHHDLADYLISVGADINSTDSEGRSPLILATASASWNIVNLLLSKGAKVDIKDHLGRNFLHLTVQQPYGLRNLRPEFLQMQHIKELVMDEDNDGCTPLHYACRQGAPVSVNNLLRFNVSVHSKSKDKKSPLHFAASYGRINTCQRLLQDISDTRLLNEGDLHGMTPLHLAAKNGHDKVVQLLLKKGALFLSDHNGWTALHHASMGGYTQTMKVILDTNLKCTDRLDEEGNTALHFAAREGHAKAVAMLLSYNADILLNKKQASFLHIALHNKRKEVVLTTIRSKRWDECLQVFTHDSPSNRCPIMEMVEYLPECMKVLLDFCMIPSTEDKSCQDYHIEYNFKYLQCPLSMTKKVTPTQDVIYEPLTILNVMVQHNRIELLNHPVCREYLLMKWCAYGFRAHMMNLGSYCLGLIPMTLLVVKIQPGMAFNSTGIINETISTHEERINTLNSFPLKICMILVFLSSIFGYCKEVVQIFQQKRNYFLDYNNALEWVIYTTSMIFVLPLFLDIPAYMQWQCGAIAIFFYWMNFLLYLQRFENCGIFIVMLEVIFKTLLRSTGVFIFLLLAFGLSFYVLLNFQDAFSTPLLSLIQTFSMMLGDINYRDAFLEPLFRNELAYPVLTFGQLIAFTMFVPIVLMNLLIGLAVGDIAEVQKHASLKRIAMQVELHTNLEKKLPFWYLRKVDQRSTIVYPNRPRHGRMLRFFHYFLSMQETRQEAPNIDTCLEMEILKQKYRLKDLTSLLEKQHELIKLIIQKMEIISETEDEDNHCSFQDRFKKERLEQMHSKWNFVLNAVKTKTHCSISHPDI
Procedure: as §1, §2, §3, §4

[3] = human TRPA1 CHO cells, AITC 30 μM, compound 1.0 μM
[4] = human TRPA1 CHO cells, AITC 30 μM, compound 10.0 μM
[5] = rat TRPA1 CHO cells, AITC 10 μM, compound 1.0 μM
[6] = rat TRPA1 CHO cells, AITC 10 μM, compound 10.0 μM
[7] = human TRPA1 CHO cells, AITC 30 μM, read-out: Human IC50 value (Range)
[8] = rat TRPA1 CHO cells, AITC 10 μM

SMILES | inhibition at 1 µM [1, 3] [%] | inhibition at 10 µM [1, 4] [%] | inhibition at 1 µM [2, 5] [%] | inhibition at 10 µM [2, 6] [%] | IC50 [1, 7] [nM] | IC50 [2, 8] [nM] | inhibition at 1 µM ([2]; CHO) [%] | inhibition at 10 µM ([2]; CHO) [%] | IC50 [1] [nM] | inhibition at 1 µM ([1]; CHO) [%] | inhibition at 10 µM ([1]; CHO) [%]
Cn1c(=O)c2c(CC(=O)Nc3nc(C(F)(F)F)cs3)csc2n(C)c1=O [Example 1, 2-(1,3-Dimethyl-2,4-dioxo-1,2,3,4-tetrahydrothieno[2,3-d]pyrimidin-5-yl)-N-[4-(trifluoromethyl)-1,3-thiazol-2-yl]acetamide] | 13.2 | 46 | – | – | – | – | – | – | – | – | –
Cn1c(=O)c2c(CC(=O)Nc3nc(-c4ccc(Cl)cc4)cs3)csc2n(C)c1=O [Example 2, N-[4-(4-Chlorophenyl)-1,3-thiazol-2-yl]-2-(1,3-dimethyl-2,4-dioxo-1,2,3,4-tetrahydrothieno[2,3-d]pyrimidin-5-yl)acetamide] | 99 | 98.8 | 91.4 | 99.3 | 50 to 500 | – | – | – | – | – | –
Cn1c(=O)c2c(CC(=O)Nc3nc(-c4cccc(OC(F)(F)F)c4)cs3)csc2n(C)c1=O [Example 3, 2-(1,3-Dimethyl-2,4-dioxo-1,2,3,4-tetrahydrothieno[2,3-d]pyrimidin-5-yl)-N-{4-[3-(trifluoromethoxy)phenyl]-1,3-thiazol-2-yl}acetamide] | 89 | 98.5 | 82.4 | 99.7 | 50 to 500 | – | – | – | – | – | –
CC(C)Cc1ccc(-c2csc(NC(=O)Cc3csc4c3c(=O)n(C)c(=O)n4C)n2)cc1 [Example 4, 2-(1,3-Dimethyl-2,4-dioxo-1,2,3,4-tetrahydrothieno[2,3-d]pyrimidin-5-yl)-N-[4-(4-isobutylphenyl)-1,3-thiazol-2-yl]acetamide] | 29.1 | 99.5 | – | – | – | – | – | – | – | – | –
Cn1c(=O)c2c(CC(=O)Nc3nc(-c4ccc(C(F)(F)F)c(F)c4)cs3)csc2n(C)c1=O [Example 5, 2-(1,3-Dimethyl-2,4-dioxo-1,2,3,4-tetrahydrothieno[2,3-d]pyrimidin-5-yl)-N-{4-[3-fluoro-4-(trifluoromethyl)phenyl]-1,3-thiazol-2-yl}acetamide] | 95.3 | 99.9 | – | – | < 50 | < 50 | – | – | – | – | –
Cn1c(=O)c2c(CC(=O)Nc3nc(-c4ccc(F)c(C(F)(F)F)c4)cs3)csc2n(C)c1=O [Example 6, 2-(1,3-Dimethyl-2,4-dioxo-1,2,3,4-tetrahydrothieno[2,3-d]pyrimidin-5-yl)-N-{4-[4-fluoro-3-(trifluoromethyl)phenyl]-1,3-thiazol-2-yl}acetamide] | 100 | 100 | 99.7 | 99.9 | < 50 | 50 to 500 | – | – | – | – | –
Cn1c(=O)c2c(CC(=O)Nc3nc(-c4ccc(C(F)(F)F)cc4F)cs3)csc2n(C)c1=O [Example 7, 2-(1,3-Dimethyl-2,4-dioxo-1,2,3,4-tetrahydrothieno[2,3-d]pyrimidin-5-yl)-N-{4-[2-fluoro-4-(trifluoromethyl)phenyl]-1,3-thiazol-2-yl}acetamide] | – | – | – | – | – | – | 26.6 | 100 | < 50 | 80.4 | 99.8
Cn1c(=O)c2c(CC(=O)Nc3nc(-c4cc(F)cc(C(F)(F)F)c4)cs3)csc2n(C)c1=O [Example 8, 2-(1,3-Dimethyl-2,4-dioxo-1,2,3,4-tetrahydrothieno[2,3-d]pyrimidin-5-yl)-N-{4-[3-fluoro-5-(trifluoromethyl)phenyl]-1,3-thiazol-2-yl}acetamide] | 89.8 | 99.9 | 95.5 | 100 | < 50 | 50 to 500 | – | – | – | – | –
Cn1c(=O)c2c(CC(=O)Nc3nc(-c4cccc(C(F)(F)F)c4F)cs3)csc2n(C)c1=O [Example 9, 2-(1,3-Dimethyl-2,4-dioxo-1,2,3,4-tetrahydrothieno[2,3-d]pyrimidin-5-yl)-N-{4-[2-fluoro-3-(trifluoromethyl)phenyl]-1,3-thiazol-2-yl}acetamide] | 99.2 | 98.4 | 100 | 100 | < 50 | 50 to 500 | – | – | – | – | –
Cn1c(=O)c2c(CC(=O)Nc3nc(-c4ccc(F)c(OC(F)(F)F)c4)cs3)csc2n(C)c1=O [Example 10, 2-(1,3-Dimethyl-2,4-dioxo-1,2,3,4-tetrahydrothieno[2,3-d]pyrimidin-5-yl)-N-{4-[4-fluoro-3-(trifluoromethoxy)phenyl]-1,3-thiazol-2-yl}acetamide] | 98.2 | 99.5 | 96.1 | 100 | < 50 | 50 to 500 | – | – | – | – | –
Cn1c(=O)c2c(CC(=O)Nc3nc(-c4ccc(OC(F)(F)F)c(F)c4)cs3)csc2n(C)c1=O [Example 11, 2-(1,3-Dimethyl-2,4-dioxo-1,2,3,4-tetrahydrothieno[2,3-d]pyrimidin-5-yl)-N-{4-[3-fluoro-4-(trifluoromethoxy)phenyl]-1,3-thiazol-2-yl}acetamide] | 98.6 | 97.1 | 98.8 | 99.8 | < 50 | < 50 | – | – | – | – | –
Cn1c(=O)c2c(CC(=O)Nc3nc(-c4ccc(Cl)c(Cl)c4)cs3)csc2n(C)c1=O [Example 12, N-[4-(3,4-Dichlorophenyl)-1,3-thiazol-2-yl]-2-(1,3-dimethyl-2,4-dioxo-1,2,3,4-tetrahydrothieno[2,3-d]pyrimidin-5-yl)acetamide] | 99.7 | 99.8 | 97.8 | 100 | < 50 | 50 to 500 | – | – | – | – | –
Cn1c(=O)c2c(CC(=O)Nc3nc(-c4ccc(C(F)(F)F)c(F)c4F)cs3)csc2n(C)c1=O [Example 15, N-{4-[2,3-Difluoro-4-(trifluoromethyl)phenyl]-1,3-thiazol-2-yl}-2-(1,3-dimethyl-2,4-dioxo-1,2,3,4-tetrahydrothieno[2,3-d]pyrimidin-5-yl)acetamide] | 60 | 96.8 | – | – | – | – | – | – | – | – | –
Cc1sc2c(c1CC(=O)Nc1nc(-c3cccc(OC(F)(F)F)c3)c[nH]1)c(=O)n(C)c(=O)n2C [Example 28, N-[4-(3-Trifluoromethoxyphenyl)-1H-imidazol-2-yl]-2-(1,3,6-trimethyl-2,4-dioxo-1,2,3,4-tetrahydrothieno[2,3-d]pyrimidin-5-yl)acetamide] | 10 | 46.8 | – | – | – | – | – | – | – | – | –
Cc1sc2c(c1CC(=O)Nc1nc(-c3ccc(C(F)(F)F)c(F)c3)c[nH]1)c(=O)n(C)c(=O)n2C [Example 29, N-{4-[3-Fluoro-4-(trifluoromethyl)phenyl]-1H-imidazol-2-yl}-2-(1,3,6-trimethyl-2,4-dioxo-1,2,3,4-tetrahydrothieno[2,3-d]pyrimidin-5-yl)acetamide] | 91.7 | 98 | – | – | 50 to 500 | – | – | – | – | – | –
Cn1c(=O)c2c(CC(=O)Nc3cc(-c4ccc(Cl)cc4)no3)csc2n(C)c1=O [Example 38, N-[3-(4-Chlorophenyl)isoxazol-5-yl]-2-(1,3-dimethyl-2,4-dioxo-1,2,3,4-tetrahydrothieno[2,3-d]pyrimidin-5-yl)acetamide] | 25 | 87.9 | – | – | – | – | – | – | – | – | –
Cn1c(=O)c2c(CC(=O)Nc3cc(-c4ccc(Br)cc4)on3)csc2n(C)c1=O [Example 39, N-[5-(4-Bromophenyl)isoxazol-3-yl]-2-(1,3-dimethyl-2,4-dioxo-1,2,3,4-tetrahydrothieno[2,3-d]pyrimidin-5-yl)acetamide] | 47.8 | 78.6 | – | – | – | – | – | – | – | – | –
Cn1c(=O)c2c(CC(=O)Nc3ccn(-c4ccc(Br)cc4)n3)csc2n(C)c1=O [Example 40, N-[1-(4-Bromophenyl)-1H-pyrazol-3-yl]-2-(1,3-dimethyl-2,4-dioxo-1,2,3,4-tetrahydrothieno[2,3-d]pyrimidin-5-yl)acetamide] | 99.9 | 100 | – | – | < 50 | – | – | – | – | – | –
Cn1c(=O)c2c(CC(=O)Nc3nnc(-c4ccc(Br)cc4)s3)csc2n(C)c1=O [Example 42, N-[5-(4-Bromophenyl)-1,3,4-thiadiazol-2-yl]-2-(1,3-dimethyl-2,4-dioxo-1,2,3,4-tetrahydrothieno[2,3-d]pyrimidin-5-yl)acetamide] | 9.74 | 74.6 | – | – | – | – | – | – | – | – | –
Cn1c(=O)c2c(CC(=O)Nc3nccc(-c4ccc(Br)cc4)n3)csc2n(C)c1=O [Example 43, N-[4-(4-Bromophenyl)pyrimidin-2-yl]-2-(1,3-dimethyl-2,4-dioxo-1,2,3,4-tetrahydrothieno[2,3-d]pyrimidin-5-yl)acetamide] | 30.5 | 4.42 | – | – | – | – | – | – | – | – | –
